This note sets out measurements from patent US20230174484A1, “ANTAGONISTS OF GPR39 PROTEIN” (Oregon Health & Science University, priority 2020, published 2023).

SMILES strings stand for the structures.

The target of this assay is T1, human GPR39 receptor (Homo sapiens, UniProt O43194).
T1 construct: PC3 Cells, Expressing the Endogenous Human GPR39 Receptor; endogenous in cells; host or cells: PC3 (human prostate adenocarcinoma) cells
T1 sequence (O43194 1-453): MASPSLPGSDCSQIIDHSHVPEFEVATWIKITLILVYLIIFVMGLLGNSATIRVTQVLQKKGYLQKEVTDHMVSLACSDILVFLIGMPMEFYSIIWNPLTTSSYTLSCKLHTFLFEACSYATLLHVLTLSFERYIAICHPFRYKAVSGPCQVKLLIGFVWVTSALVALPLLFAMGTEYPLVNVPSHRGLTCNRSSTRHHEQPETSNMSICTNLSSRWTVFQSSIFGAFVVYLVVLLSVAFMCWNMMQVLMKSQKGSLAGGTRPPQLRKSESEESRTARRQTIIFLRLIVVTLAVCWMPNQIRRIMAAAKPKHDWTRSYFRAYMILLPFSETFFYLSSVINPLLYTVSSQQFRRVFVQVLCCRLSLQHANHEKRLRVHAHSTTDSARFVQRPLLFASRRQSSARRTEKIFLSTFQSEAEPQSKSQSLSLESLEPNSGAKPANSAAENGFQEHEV
The assay is described as follows: Measurement of intracellular calcium response in PC3 cells (FLIPR), antagonism of the C3 agonist response. It is filed as cell-based. The note with it: functional pKi (modified Cheng-Prusoff), inhibition of the C3 (TC-G 1008) response at EC90, 30 μM ZnCl2, read-out: fpKi activity. On the procedure:
Human prostate adenocarcinoma (PC3) cells endogenously expressing human GPR39 receptor were seeded into black walls clear-base 384-well plates at a density of 7,500 cells per well in DM EM (Low Glucose) supplemented with 10% heat-inactivated foetal bovine serum and 1% of Pen/Strep and grown overnight at 37° C., 5% CO2. After washing with assay buffer (20 mM HEPES, 137 mM NaCI, 5.4 mM KCI, 10 mM glucose, 0.8 mM MgSO4, 1.3 mM CaCl2, 0.3 mM Na2HPO4, 0.4 mM KH2PO4 4.2 mM NaHCO3, pH 7.4), cells were incubated with Calcium-6 probe (Molecular Devices) at 37° C. for 2h and then equilibrated at RT for 30 minutes on metal block. The fluorescence was measured in real time by Fluorometric Imaging Plate Reader (FLIPR TETRA, Molecular Devices) (excitation wavelength at 470-495 nm, emission wavelength at 515-575 nm).
Compounds of invention were serially diluted in neat DMSO at 1000 fold concentrations and plated into 384-well plates and then 200-fold diluted in assay buffer containing 150 uM ZnCl2 (30 μM final concentration) and […].
Fluorescence was monitored throughout the run assay. The peak of Ca2+stimulation (baseline subtracted) was expressed as percentage of the maximal inhibition of the EC90 C3 response and was plotted versus the concentration of test compound. Curve fitting and IC50 estimations are carried out using a four-parameter logistic model using XLfit Software.
The potency of compounds was reported as functional pKi (—Log10Ki) obtained using the modified Cheng-Prusoff relationship (Cheng, Y., Prusoff, W. H. 1973.)
fKi =IC50/(1+[L]/EC50) where IC50 is the concentration of antagonist required for 50% inhibition of the maximum response, [L] is the concentration of the agonist used (EC90) and EC50 is the concentration of agonist need to induced 50% of the maximum response (obtained in each experimental plate).
An fpKi less than 5.2 is reported as “+/±”. An fpKi ranging from 5.2 to 5.9 is reported as “+”. An fpKi from 6.0 to 6.5 is reported as “++”. An fpKi from 6.6 to 7.2 is reported as “+++”. An fpKi equal to or greater than 7.3 is reported as “++++”.
Turning to `CCCN1CCN(C(=O)c2ccc(NC(=O)C3CC3)cc2N2CCC(C)C2)CC1` (single isomer, unassigned) [Example 13a, N-(3-[(3R or 3S] 3-methylpyrrolidin-1-yl]-4-(4-propylpiperazine-1-carbonyl)phenyl) cyclopropanecarboxamide], the Ki fell in the range of 63.1 to 251 nM. For `CCCN1CCN(C(=O)c2ccc(NC(=O)C3CC3)cc2N2CCCC2)CC1` [Example 16, N-[4-(4-propylpiperazine-1-carbonyl)-3-(pyrrolidin-1-yl)phenyl] Cyclopropanecarboxamide], the Ki lay within 63.1 to 251 nM. With `CCCN1CCN(C(=O)c2ccc(NC(=O)C3CC3)cc2-n2ccc(C)c2)CC1` [Example 9, N-[3-(3-methylpyrrol-1-yl)-4-(4-propylpiperazine-1-carbonyl)phenyl] Cyclopropanecarboxamide] the figure was 1260 to 6310 nM. Take `CN1CCN(C(=O)c2ccc(NC(=O)C3CC3)cc2N2CCCC2)C(c2ccccc2)C1` (single isomer, unassigned) [Example 62a, (2R or 2S) n-[4-(4-methyl-2-phenylpiperazine-1-carbonyl)-3-pyrrolidin-1-ylphenyl] Cyclopropanecarboxamide]: the Ki was ≤ 50.1 nM. For `O=C(Nc1ccc(C(=O)N2CCS(=O)(=O)CC2)c(N2CC3CC(C3)C2)c1)C1CC1` [Example 195, N-[3-(3-azabicyclo[3.1.1]heptan-3-yl)-4-(1,1-dioxo-1,4-thiazinane-4-carbonyl)phenyl]cyclopropanecarboxamide], the Ki was 63.1 to 251 nM. Consider `CN1CCN(C(=O)c2ccc(NC(=O)C3CC3)nc2N2CC3CC3C2)C(c2ccccc2)C1` (racemic) [Example 145], for which the Ki lay in the range of 63.1 to 251 nM. `O=C(Nc1ccc(C(=O)N2CCS(=O)(=O)CC2)c(N2CCC(C(F)(F)F)C2)c1)C1CC1` (single isomer, unassigned) [Example 183a, N-[4-(1,1-dioxo-1,4-thiazinane-4-carbonyl)-3-[3r or 3S-(trifluoromethyl)pyrrolidin-1-yl]phenyl]cyclopropanecarboxamide]: the Ki was ≤ 50.1 nM. Turning to `CCCN1CCN(C(=O)c2ccc(NC(=O)C3CC3)cc2-n2ccc(C(F)(F)F)n2)CC1` [Example 158, N-[4-(4-propylpiperazine-1-carbonyl)-3-[3-(trifluoromethyl)pyrazol-1-yl]phenyl]cyclopropanecarboxamide], the Ki is ≤ 50.1 nM. For `CC(C)c1ccn(-c2cc(NC(=O)C3CC3)ccc2C(=O)N2CCS(=O)(=O)CC2)n1` [Example 179, N-[4-(1,1-dioxo-1,4-thiazinane-4-carbonyl)-3-(3-propan-2-ylpyrazol-1-yl)phenyl]cyclopropanecarboxamide], the Ki is ≤ 50.1 nM. Turning to `O=C(Nc1ccc(C(=O)N2CCS(=O)(=O)CC2)c(N2CCCC2)c1)C1CC1` [Example 60, N-[4-(1,1-dioxo-1,4-thiazinane-4-carbonyl)-3-pyrrolidin-1-ylphenyl] Cyclopropanecarboxamide], the Ki fell in the range of 63.1 to 251 nM. Consider `CN1CCN(C(=O)c2ccc(NC(=O)C3CC3)nc2N2CCCC2)C(c2ccccc2)C1` (single isomer, unassigned) [Example 149b, (2R or 2S) N-[5-(4-methyl-2-phenylpiperazine-1-carbonyl)-6-pyrrolidin-1-ylpyridin-2-yl] cyclopropanecarboxamide], for which the Ki lay in the range of 1260 to 6310 nM. On to `CN1CCN(C(=O)c2ccc(NC(=O)C3CC3)cc2N2CCCC2)C(c2cnn(C)c2)C1` (racemic) [Example 87, N-[4-[4-methyl-2-(1-methylpyrazol-4-yl)piperazine-1-carbonyl]-3-pyrrolidin-1-ylphenyl]Cyclopropanecarboxamide], for which the Ki lay in the range of 316 to 1000 nM. On to `CCCN1CCN(C(=O)c2ccc(NC(=O)C3CC3)cc2N2CC3(CCOCC3)C2)CC1` [Example 4, N-(4-(4-propylpiperazine-1-carbonyl)-3-(7-oxa-2-azaspiro[3.5]nonan-2-yl)phenyl)cyclopropane carboxamide], for which the Ki is 316 to 1000 nM. Take `CN1CCN(C(=O)c2ccc(NC(=O)C3CC3)cc2N2CCC(F)(F)C2)C(c2ccccc2)C1` (single isomer, unassigned) [Example 202a, N-[3-(3,3-difluoropyrrolidin-1-yl)-4-(2R or 2S)-4-methyl-2-phenylpiperazine-1-carbonyl)phenyl]cyclopropanecarboxamide]: the Ki lay in the range of 1260 to 6310 nM. As to `O=C(Nc1ccc(C(=O)N2CCN(C3CCCC3)CC2)c(N2CCCCCC2)c1)C1CC1` [Example 53, N-[3-(azepan-1-yl)-4-(4-cyclopentylpiperazine-1-carbonyl)phenyl]cyclopropanecarboxamide], the Ki lay within 316 to 1000 nM. Turning to `O=C(Nc1ccc(C(=O)N2CCN(Cc3ccccc3Cl)CC2)c(N2CCCCCC2)c1)C1CC1` [Example 31, N-(3-(azepan-1-yl)-4-(4-(2-chlorobenzyl)piperazine-1-carbonyl)phenyl) Cyclopropanecarboxamide], the Ki was in the range of 316 to 1000 nM.

With `CC(C)C1CN(C)CCN1C(=O)c1ccc(NC(=O)C2CC2)cc1N1CCCCCC1` (stereo not shown) [Example 79, N-[3-(azepan-1-yl)-4-(4-methyl-2-propan-2-ylpiperazine-1-carbonyl)phenyl]Cyclopropanecarboxamide], the Ki is 1260 to 6310 nM. Regarding `CN1CCN(C(=O)c2ccc(NC(=O)C3CC3)cc2N2CCC(C(F)(F)F)C2)C(c2ccccc2)C1` (single isomer, unassigned) [Example 199c, (2S, 3R) or (2R, 3S) or (2R, 3R) or (2S, 3S) N-[4-(4-methyl-2-phenylpiperazine-1-carbonyl)-3-[3-(trifluoromethyl)pyrrolidin-1-yl]phenyl]cyclopropanecarboxamide], the Ki was 63.1 to 251 nM. Consider `CN1CCN(C(=O)c2ccc(NC(=O)C3CC3)nc2N2CCC(F)(F)C2)C(c2ccccc2)C1` (racemic) [Example 148c, N-[6-(3,3-difluoropyrrolidin-1-yl)-5-(4-methyl-2-phenylpiperazine-1-carbonyl)pyridin-2-yl]cyclopropanecarboxamide], for which the Ki was in the range of 63.1 to 251 nM. Turning to `Cc1nnc(-c2ccc(C(=O)N3CCN(C)CC3c3ccccc3)c(N3CCC(C(F)(F)F)C3)c2)[nH]1` (single isomer, unassigned) [Example 177d, (2S, 3R) or (2R, 3S) or (2R, 3R) or (2S, 3S) (4-methyl-2-phenylpiperazin-1-yl)-[4-(5-methyl-4H-1,2,4-triazol-3-yl)-2-[3-(trifluoromethyl)pyrrolidin-1-yl]phenyl]methanone], the Ki is 316 to 1000 nM.

As for `CCCN1CCN(C(=O)c2ccc(Nc3nnc(C4CC4)[nH]3)cc2N2CCCCCC2)CC1` [Example 98], the Ki fell in the range of 1260 to 6310 nM.

Turning to `O=C(Nc1ccc(C(=O)N2CCC(C(F)(F)F)CC2)c(N2CCCCCC2)c1)C1CC1` [Example 38, N-(3-(azepan-1-yl)-4-(4-(trifluoromethyl)piperidine-1-carbonyl)phenyl) cyclopropanecarboxamide], the Ki lay within 63.1 to 251 nM. On to `CCCN1CCN(C(=O)c2ccc(NC(=O)C3CC3)cc2N2C[C@@H](C)C[C@H](C)C2)CC1` (relative stereo) [Example 14b], for which the Ki lay in the range of 63.1 to 251 nM.

Turning to `CN1CCN(C(=O)c2ccc(NC(=O)C3CC3)cc2N2CCCC2)C(c2cccc(Cl)c2)C1` (racemic) [Example 171c, N-[4-[2-(3-chlorophenyl)-4-methylpiperazine-1-carbonyl]-3-pyrrolidin-1-ylphenyl]cyclopropanecarboxamide], the Ki is ≤ 50.1 nM. For `O=C(Nc1ccc(C(=O)N2CCN(Cc3ncco3)CC2c2ccccc2)c(N2CCCCCC2)c1)C1CC1` (stereo not shown) [Example 83, N-[3-(azepan-1-yl)-4-[4-(1,3-oxazol-2-ylmethyl)-2-phenylpiperazine-1-carbonyl]phenyl]cyclopropanecarboxamide], the Ki was 63.1 to 251 nM.
